We go through 3 compounds from patent US20170196878A1, “USE OF CBP/EP300 AND BET INHIBITORS FOR TREATMENT OF CANCER” (GENENTECH, INC., priority 2014, published 2017).

SMILES strings stand for the structures.

Test [1] deals with IRF4 mRNA expression. In words: IRF4 mRNA expression in LP-1 cells by q-RTPCR. In kind it is cell-based. As to conditions: 6 h, q-RTPCR normalized to GAPDH. The protocol:
FIG. 8. CBP/EP300 and BET bromodomain inhibition have distinct transcriptional effects. […] Expression values for replicate compound treated samples were normalized to paired DMSO controls to obtain log2 fold change values. […] Cells were treated with compound for 6 h, and mRNA expression was assessed with q-RTPCR and normalized to GAPDH. Values represent the mean of n=3, ±SEM. […] LP-1 cells were treated with a titration of CPI203 for 6 h, and IRF4 expression was determined by q-RTPCR and normalized to GAPDH. Values represent the mean of n=2, ±SEM.

Test [2] deals with T1, ZsGreen-bromodomain fusion protein (CBP) (Homo sapiens, UniProt Q92793).
T1 construct: expressed in transfected cells
T1 sequence (Q92793 1085-1192 limits assumed): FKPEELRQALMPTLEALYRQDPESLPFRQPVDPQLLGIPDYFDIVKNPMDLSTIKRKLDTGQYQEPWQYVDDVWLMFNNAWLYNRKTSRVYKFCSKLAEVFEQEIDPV
In words: Release of chromatin-bound ZsGreen-bromodomain fusion protein (CBP), high content imaging of nuclear foci. In kind it is cell-based. As to conditions: number of nuclear foci, read-out: Calculated EC50, release of chromatin-bound ZsGreen-CBP bromodomain fusion protein.
Description: (§1) Release of chromatin-bound ZsGreen-bromodomain fusion proteins in the presence of compound was monitored with high content imaging. Each curve represents the indicated compound and the indicated fusion protein (BRD4 or CBP). The number of nuclear foci increases with compound target engagement (values are mean of four fields per well of two technical replicates, +SEM).

Test [3] concerns the target ZsGreen-bromodomain fusion protein (BRD4) (Homo sapiens, UniProt O60885). In words: Release of chromatin-bound ZsGreen-bromodomain fusion protein (BRD4), high content imaging of nuclear foci. As to conditions: read-out: Calculated EC50, release of chromatin-bound ZsGreen-BRD4 bromodomain fusion protein, number of nuclear foci.
Description: as §1

What is called EC50 is the midpoint of the concentration-response curve. With `Cc1sc2c(c1C)C(c1ccc(Cl)cc1)=N[C@@H](CC(N)=O)c1nnc(C)n1-2` [CPI203], the “IRF4 mRNA expression” value in test [1] was “does not directly regulate”. The EC50 in test [2] is 1800 nM; in test [3], 80 nM.
With `CCC(=O)N1CCOc2c(cc(-c3ccc(OC)c(OC)c3)cc2OC[C@H]2CCCN(C)C2)C1` [I-CBP112], the EC50 in test [2] was 2600 nM; in test [3], > 20000 nM.
Consider `COc1ccc(CCc2nc3cc(-c4c(C)noc4C)ccc3n2C[C@H](C)N2CCOCC2)cc1Cl` [SGC-CBP30], for which, in test [1], the “IRF4 mRNA expression” value is given as “Dose-dependent inhibition”. The EC50 in test [3] is 21500 nM.
